Positions of bridges follow the written chain, without caps; N, C: chain ends. Non-standard residues stand in square brackets, D forms with d. No end group written: not given here. Hyp = O=C(O)[C@@H]1C[C@@H](O)CN1
Experiments:
BgNaV1 = details: cited from earlier work
Description: (§1) The α-1 induced alterations of gating kinetics resemble the effects of other peptide toxins known to be binding to the so-called neurotoxin binding site 3[18],[19]. Such toxins trap the voltage-sensing segment S4 of domain 4 in its inward or dea ...

DmNaV1 = details: cited from earlier work
Description: as §1

[1] = target: Blattella germanica voltage-gated sodium channel BgNaV1 (Blattella germanica) (UniProt O01307)
[2] = target: voltage-gated sodium channel NaV1.6 (not stated (mNaV1.6 in the methods, human in the results)) (UniProt Q9WTU3)

Molecule: anthopleurin A: sea anemone toxin
- inhibition of inactivation (BgNaV1): complete inhibition of the inactivation
- inhibition of inactivation (DmNaV1): complete inhibition of the inactivation

Molecule: ATX-II: sea anemone toxin
- inhibition of inactivation (BgNaV1): complete inhibition of the inactivation
- inhibition of inactivation (DmNaV1): complete inhibition of the inactivation

Molecule: GCIATGSFCTLSKGCCTKNCGWNFKCN[Hyp][Hyp]NQK (disulfide 15-26, 2-16, 9-20) [nemertide α-1]
- two-electrode voltage clamp on oocytes: concentration-response curve of the toxin-induced modulation of BgNaV1 currents, EC50 [1]: 8.6 nM
- two-electrode voltage clamp on oocytes: concentration-response curve on NaV1.6, EC50 (Figure S4C) [2]: 800 nM
